Patent publication US20250319213A1, “FUNCTIONALIZED BISAMINOTHIOL DERIVATIVES, COMPLEXES WITH THESE BISAMINOTHIOL DERIVATIVES AND USE OF SAID COMPLEXES AS DIAGNOSTICS AND THERAPEUTICS” (ABX ADVANCED BIOCHEMICAL COMPOUNDS – BIOMEDIZINISCHE …, priority 2022, published 2025)

Legend:
[1] = Determination of log D values (shake-flask, octanol/medium); type: physicochemical
Method: Log D values were determined for different media by the shake-flask method (Andrés, A.; Rosés, M.; Ràfols, C.; Bosch, E.; Espinosa, S.; Segarra, V.; Huerta, J. M. Setup and validation of shake-flask procedures for the determination of partition coefficients (log D) from low drug amounts. Eur. J. Pharm. Sci. 2015, 76, 181-191.). In preparation, octanol was saturated with each of the used buffer solutions and vice versa. To 3 mL of octanol, together with 3 mL of buffer solution 200-300 μL of the ^99mTc-labeled radioligand (15-25 MBq, samples in triplicate) were added and shaken vigorously for 30 min. After centrifugation at 9,000 rpm for 15 min, samples were taken from both separated phases and measured by gamma-counter. Log D values were calculated as the ratio of radioactivity determined in octanol and aqueous phase.

[2] = Product stability in mouse plasma (in vitro); type: in vitro ADME; conditions: mean ± SD (n = 3-4), normalized to fraction immediately after preparation
Method: (§1) In brief, the freshly produced ^99mTc-labeled radioligand solution (10-20 MBq, 20-100 μL) was added to the respective medium (200-400 μL), vortexed quickly, and shook gently at the respective temperature mentioned below. At certain time points, samples were taken, diluted, and measured by radio-RP-HPLC. Hereby, investigation of plasma samples included protein precipitation with the 4-fold volume of an ice-cold mixture of methanol/water (4/1, v/v), intensive shaking (5 min) and centrifugation (14,000 rpm, 10 min), before inspection of the supernatant. In addition, the recovery of extracted activity was calculated after activity measurement of supernatant and residue by a gamma counter.

[3] = Product stability in DPBS at 25° C.; type: physicochemical; conditions: DPBS (+Ca2+, +Mg2+), mean ± SD; for Fraction of radioligand in DPBS at 25° C., 1 h / Fraction of radioligand in DPBS at 25° C., 2 h / Fraction of radioligand in DPBS at 25° C., 4 h / Fraction of radioligand in DPBS at 25° C., 20 h: normalized to fraction immediately after preparation
Method: as §1

LNCaP cells = test: Determination of the internalization (surface binding and internalized activity); type: cell-based, human; conditions: 1 h; for Internalization, 4° C. (% AD/mg Protein) / Internalization, 37° C. (% AD/mg Protein): cytosolic activity; for Internalization, 4° C. (% AD/mg Protein) / Internalization, 37° C. (% AD/mg Protein) / Binding, 4° C. (% AD/mg Protein) / Binding, 37° C. (% AD/mg Protein): 25 nM radioligand, mean ± SEM; for Binding, 4° C. (% AD/mg Protein) / Binding, 37° C. (% AD/mg Protein): surface-bound activity
Method: Competition, saturation and internalization assays were assessed using the high PSMA expressing human prostate carcinoma cell line LNCaP (ATCC® CRL-1740). The cells were grown as monolayer at 37° C. in a humidified atmosphere comprising 5% CO2 and 95% air in RPMI medium including 10% FCS (Merck KGAA, Germany). After washing the confluent cells twice with phosphate buffered saline (PBS) and detaching them with trypsin/EDTA (0.05%/0.02%), the cells were suspended in medium and counted (Casy TT, Omni Life Science, Germany).
For internalization LNCaP and PC3 cells were seeded, 1×10^5 cells/well in 24-well plates two days before the assay. On the day of internalization, after aspirating the medium, 100 μL of PBS and, for non-specific binding samples, 100 μL 2-PMPA (100 μM) were pipetted into the wells, followed by 400 μL medium including activity. The concentration of the ^99mTc-labeled radioligands was 25 nM. After 1 h of incubation at 37° C. and adjacent well plates at 4° C., the supernatant was removed and the cells washed with cold PBS. Surface-bound activity was stripped with 4° C. cold acid-wash buffer (0.2 M glycine, pH 2.8) for 5 min. The acid wash buffer was transferred from the plate wells to measuring tubes, as was the PBS buffer after washing once (binding on the surface). Cytosolic activity was determined after treatment with cell lysis buffer (0.1 M NaOH/1% SDS). Cell surface and cytosolic activity were measured separately in a gamma counter. Determination of protein content from cell lysate was performed using a spectrophotometer (NanoDrop, Thermo Fisher Scientific, USA) at an absorbance of 280 nm.

[4] = Product stability at room temperature (without addition of any media); type: physicochemical; conditions: no media, radio-RP-HPLC
Method: as §1

[5] = tested on: subcutaneous LNCaP tumor xenografts; test: SPECT/CT and PET/CT imaging in LNCaP tumor bearing mice; type: in vivo; conditions: LNCaP tumor bearing mice after 1 h and 4 h (FIG. 5)
Method: A prostate cancer xenograft model was generated via subcutaneous injection of human LNCaP cells into the right shoulder of 8-12 week-old male nude mice (Rj:NMRI-Foxn1^nu/nu, Janvier Labs, Le Genest-Saint-Isle, France). Imaging studies were performed when tumors reached a diameter of >6 mm. General anesthesia was induced and maintained with inhalation of 10% (v/v) desflurane in […] oxygen/air. During anesthesia, animals were continuously warmed at 37° C.
Small animal single-photon emission computed tomography (SPECT) was performed using the nanoSPECT/CT scanner (Mediso Medical Imaging Systems) equipped with an APT63 aperture consisting of four M3 multi-pinhole collimators. Each animal received 30 MBq of ^99mTc-labeled compounds delivered in 0.2 mL of Dulbecco's phosphate-buffered saline as a single intravenous injection through a tail vein catheter. Photon emission was recorded using frame times of 60 s (1 h scan: 40-70 min), 90 s (4 h scan, 3.5-4.5 h), and 320 s (20 h scan, 18.5-21.5 h), and binned simultaneously within the 20% energy window of the 140.5 keV photopeak. With each SPECT scan, a corresponding CT image was recorded and used for anatomical referencing and attenuation correction. SPECT images were reconstructed using the Tera-Tomo™ three-dimensional (3D) algorithm at normal range with a voxel size of 0.4 mm and applying corrections for scatter attenuation, and decay.
Small animal positron emission tomography (PET) was performed using the nanoPET/CT scanner (Mediso Medical Imaging Systems). Each animal received 10 MBq of the radiolabeled reference compound [^68Ga]Ga-PSMA-11 delivered in Dulbecco's phosphate-buffered saline as a single intravenous injection through a tail vein catheter. Emission of the 511 keV annihilation photons was recorded continuously at a coincidence mode of 1:5 for 60 min following radiotracer injection. With each PET scan, a corresponding CT image was recorded and used for anatomical referencing and attenuation correction. Three-dimensional list mode data were binned using the 400-600 keV energy window. PET images of the 40-60 min time frame were reconstructed using the Tera-Tomo™ three-dimensional (3D) algorithm with a voxel size of 0.4 mm and applying corrections for random events, scatter, attenuation, and decay.
Three-dimensional VOIs were created applying fixed threshold for delineation of tumor (30%), muscle (0%); and kidneys (39%). Standardized uptake values (SUV=[MBq detected activity/mL tissue]/[MBq injected activity/g body weight], mL/g) were determined and reported as max SUV (VOI-maximum). Time-activity curves were generated and further analyzed using Prism (GraphPad Software, San Diego CA, USA).

Row | LogD (shake-flask, octanol/medium) Na-phosphate pH 7.4 ([1]; 4.4 mM Na2HPO4, 2.2 mM NaH2PO4, pH 7.4) | LogD (shake-flask, octanol/medium) PBS 0.1M pH 7.4 ([1]; PBS 0.1M pH 7.4) | LogD (shake-flask, octanol/medium) TRIS buffer 0.1M pH 7.4 ([1]; TRIS buffer 0.1M pH 7.4) | Fraction of radioligand after 6 h in mouse plasma at 37° C. [2] [%] | Fraction of radioligand in DPBS at 25° C., 1 h [3] [%] | Fraction of radioligand in DPBS at 25° C., 2 h [3] [%] | Fraction of radioligand in DPBS at 25° C., 4 h [3] [%] | Fraction of radioligand in DPBS at 25° C., 20 h [3] [%] | Fraction of radioligand at indicated time point after preparation, 0 h ([4]; 0 h) [%] | Fraction of radioligand at indicated time point after preparation, 2 h ([4]; 2 h) [%] | Fraction of radioligand at indicated time point after preparation, 4 h ([4]; 4 h) [%] | Fraction of radioligand at indicated time point after preparation, 6 h ([4]; 6 h) [%] | tumor-to-liver ratios among the [99mTc]-labeled radioligands [5] | tumor-to-muscle ratios among the [99mTc]-labeled radioligands [5] | Fraction of radioligand in DPBS at 25° C., after 6 h instead of 4 h ([3]; 6 h (footnote &), normalized) [%^&] | Structure (SMILES) | % Internalization, 37° C. (LNCaP cells) [%] | Internalization, 4° C. (% AD/mg Protein) (LNCaP cells) | Internalization, 37° C. (% AD/mg Protein) (LNCaP cells) | Binding, 4° C. (% AD/mg Protein) (LNCaP cells) | Binding, 37° C. (% AD/mg Protein) (LNCaP cells)
1 | −2.18 ± 0.002 | −1.62 ± 0.01 | −2.18 ± 0.01 | 96.8 ± 0.3 | 101.5 ± 0.6 | 99.5 ± 0.8 | 100.2 ± 1.0 | 93.5 ± 1.8 | – | – | – | – | – | – | – | CC1(C)CN(CCCCC(=O)N[C@@H](Cc2ccccc2)C(=O)N[C@@H](Cc2ccccc2)C(=O)N[C@@H](CCCCNC(=O)CCCCCCC(=O)NCCCC[C@H](NC(=O)N[C@@H](CCC(=O)O)C(=O)O)C(=O)O)C(=O)O)CC[N]2CC(C)(C)[S][99Tc]2(=[O])[S]1 (stereo partly shown) [[^99mTc]TcO-1] | – | – | – | – | –
2 | – | – | – | – | 88.4 ± 14.8 | 100 ± 1.8 | 105.5 | 98.0 ± 1.0 | – | – | – | – | – | – | – | CC1(C)CN(CCCCC(=O)N[C@H](Cc2ccc(O)c(I)c2)C(=O)N[C@H](Cc2ccccc2)C(=O)N[C@H](CCCCNC(=O)CCCCCCC(=O)NCCCC[C@H](NC(=O)N[C@@H](CCC(=O)O)C(=O)O)C(=O)O)C(=O)O)CC[N]2CC(C)(C)[S][99Tc]2(=[O])[S]1 (stereo partly shown) [[^99mTc]TcO-4] | 39.2 | 0.2 ± 0.0 | 1.9 ± 0.9 | 2.2 ± 0.1 | 2.9 ± 0.5
3 | – | – | – | – | 75.9 ± 0.2 | 74.4 ± 0.1 | – | 18.7 | 89 | 87 | 88 | 85 | a marked or a significant increase | a marked or a significant increase | 72.3 ± 0.9 | O=C(O)CC[C@H](NC(=O)N[C@@H](CCCCNC(=O)CCCCCCC(=O)NCCCC[C@@H](NC(=O)[C@H](CCC(=O)O)NC(=O)[C@H](CCC(=O)O)NC(=O)CCC(=O)NCCCN1CC[S][99Tc]2(=[O])[S]CC[N]2CC1)C(=O)O)C(=O)O)C(=O)O (stereo partly shown) [[^99mTc]TcO-6] | 38.5 | 0.2 ± 0.0 | 2.9 ± 0.2 | 2.5 ± 0.4 | 4.7 ± 0.2
4 | – | – | – | – | – | – | – | – | – | – | – | – | – | – | – | O=C([O-])CN(CCN(CC(=O)[O-])Cc1cc(CCC(=O)NCCCCCC(=O)NCCCC[C@H](NC(=O)N[C@@H](CCC(=O)O)C(=O)O)C(=O)O)ccc1[O-])Cc1cc(CCC(=O)O)ccc1[O-].[68Ga+3].[OH3+] [^68Ga-PSMA11, reference compound] | 40.3 | 0.1 ± 0.0 | 0.5 ± 0.2 | 0.3 ± 0.4 | 0.8 ± 0.2
